According to article PMC10381533, “Inhibitory Effects of the Fungal Pigment Rubiginosin C on Hyphal and Biofilm Formation in Candida albicans and Candida auris” (Journal of Fungi, 2023):

Columns and labels:
C. albicans [DSM 1665] = system: C. albicans [DSM 1665]; design: method as in doi:10.1002/ejoc.202001661; conditions: highest tested concentration 250 µg/mL; cited from earlier work
C. albicans [DSM 11225] = assay: MIC assay, C. albicans DSM 11225; type: cell-based, Candida albicans; conditions: tested 250–2 µg/mL
Description: (§1) The MICs of rubiginosin- and rutilin-type azaphilones—in detail, Rub A, C, W, Z, and Rut A and B—were determined as described previously using the selected pathogens C. albicans [DSM 11225, DSM 1665], C. albicans CAI-4 HWP1-lacZ [ZK3379] and C. auris [DSM 21092] (see Table S1 for detailed information). All compounds were tested within the concentration range of 250 µg/mL–2 µg/mL for C. albicans [DSM 11225, DSM 1665], C. albicans CAI-4 HWP1-lacZ [ZK3379], C. auris [DSM 21092]. […]
(§2) All compounds were fully dissolved in
(§3) The assay was conducted as a minimum inhibitory concentration (MIC) assay in 96-well round-bottom microtiter plates using the parameters summarized in table S1 and as already described in [2]. Stocks of the test organisms were generated by growing the organisms overnight in 250 mL (Candida albicans [DSM 11225], [DSM 1665], CAI-4 HWP1-lacZ, Candida auris [DSM 21092]) or 50 mL shaking (the rest organisms) flasks filled with 25 mL of the growth medium at 140 rpm (for media and temperatures see table S1). After incubation overnight, the OD of the suspension was measured and adjusted by diluting with the respective growth medium. OD600 nm was adjusted to 0.01 for bacteria and OD600 nm to 0.1 for fungi and 150 μL of the adjusted suspensions were added to all wells of a 96-well microtiter plate (one test organism per plate). Subsequently, additional 130 μL (1 mg/mL tested compounds) or 142.5 μL (10 mg/mL tested compounds ) of suspensions, plus 20 μL (1 mg/mL tested compounds) respectively 7.5 μL (10 mg/mL tested compounds ) of the test compounds were added to first row. C ontrols (one compound/column) were added as well: MeOH were used as solvent control, while different positive controls (reference drugs ) were used for the according test organisms (see table S1). Starting from row A, 150 μL of the suspension were transferred […]
(§4) to the next row, the contents thoroughly mixed, and 150 μL transferred to the following row. The remaining 150 μL after row H were discarded.
(§5) 66.7 μg/mL in row A to 0.52 μg/mL in row H (1 mg/mL tested compounds) or 250 μg/mL in row A to 2 μg/mL in row H (10 mg/mL tested compounds).
(§6) The 96-well microtiter plates were then incubated overnight on a microplate shaker at 800 rpm at 30 or 37 °C (see table S1) and were visually evaluated the next day. The MIC is defined as the lowest concentration where no growth of the test organism was observed. A lower MIC thus corresponds to a higher antimicrobial activity […]
(§7) Table S1: MIC assay experiment parameters.
(§8) Tested organisms Strain No. Growth Incubation Positive control medium temp. [°C ] (reference)
(§9) KB-3-1 (ACC 158) cervix carcinoma as well as L929 (ACC 2) mouse fibroblasts were cultured under standard cell culture conditions (37 °C, 5% CO2, 95% humidified atmosphere). The cells were maintained in high glucose DMEM containing 10% fetal bovine serum and 100 U/mL penicillin and streptomycin (Gibco, Thermo Fisher Scientific, Waltham, USA). Cell lines were serially passaged after trypsinization, using 0.05% trypsin / 0.02% EDTA solution. The cultures were routinely monitored for potential contamination, and only mycoplasma free cultures were used. The test compounds were investigated for their anti-proliferative effect on cell lines, using the 3-(4,5-dimethylthiazol-2-yl)-2,5-diphenyltetrazolium bromide (MTT) based cell viability assay. […]

[1] = system: C. albicans CAI-4 HWP1-lacZ [ZK3379]; assay: MIC assay, C. albicans CAI-4 HWP1-lacZ; type: cell-based, Candida albicans; conditions: tested 250–2 µg/mL
Description: as §1, §2, §3, §4, §5, §6, §7, §8, §9

[2] = system: C. albicans [DSM 11225] biofilm; assay: Crystal violet biofilm formation assay, C. albicans; type: cell-based, Candida albicans; conditions: CV assay, 24 h treatment
Description: The fungal pathogens C. auris [[…]] or C. albicans [DSM 11225] were cultured from stock in 25 mL YPD medium in a 250 mL flask (30 °C, 100 rpm, 18 h). The turbidity of the broth was measured at 280 nm using a spectrophotometer (Nanodrop 2000c, Thermo Fisher Scientific, Waltham, MA, USA) and diluted to match the turbidity of a 0.5 McFarland standard in RPMI 1640 medium (Gibco, New York, NY, USA; Thermo Fisher Scientific), supplemented with […] 3-(N-morpholino)propanesulfonic acid (MOPS, Carl Roth, Karlsruhe, Germany) for C. auris, or 0.05 McFarland standard in RPMI 1640 medium in the case of C. albicans. Subsequently, 150 μL of the fungal dispersion were added into each well of a 96-well microtiter plate (Falcon no. 351172, Thermo Fisher Scientific) and further incubated (37 °C, 150 rpm, 2 h [C. auris] or 90 min [C. albicans]). The supernatant was discarded and the plate was rinsed one time by using a PBS buffer. Afterwards, azaphilones (Rub A, C, W, Z, and Rut A and B) were serially diluted in 150 μL in fresh medium to concentrations of 250–2 μg/mL (Rub C for C. auris: 250–0.02 μg/mL). […] The absorbance was measured by a plate reader (Synergy 2, BioTek, Santa Clara, CA, USA) at 570 nm for C. auris or 610 nm for C. albicans. […]

[3] = system: human endocervical adenocarcinoma KB-3-1 [ACC 158] cells; conditions: cited from earlier work
[4] = system: mouse fibroblasts L929 [ACC 2]; conditions: cited from earlier work
[5] = system: murine fibroblasts (L929) and human endocervical adenocarcinoma cells (KB-3-1); design: method as in doi:10.1002/ejoc.202001661; conditions: range over Rub A and Rub Z and over both cell lines; cited from earlier work
C. auris biofilm = assay: Crystal violet biofilm formation assay, C. auris; type: cell-based, Candida auris; conditions: for effect on formation of C. auris biofilms: CV assay, 24 h treatment; for inhibition at 2 µg/mL / inhibition at 3.9 µg/mL / inhibition at 7.8 µg/mL / inhibition at 15.6 µg/mL / inhibition at 31.3 µg/mL / inhibition at 62.5 µg/mL / inhibition at 125 µg/mL / inhibition at 250 µg/mL: Candidozyma auris, read-out: inhibition of C. auris biofilm formation compared to solvent control (= 0%)
Description: The fungal pathogens C. auris [[…]] or C. albicans [DSM 11225] were cultured from stock in 25 mL YPD medium in a 250 mL flask (30 °C, 100 rpm, 18 h). The turbidity of the broth was measured at 280 nm using a spectrophotometer (Nanodrop 2000c, Thermo Fisher Scientific, Waltham, MA, USA) and diluted to match the turbidity of a 0.5 McFarland standard in RPMI 1640 medium (Gibco, New York, NY, USA; Thermo Fisher Scientific), supplemented with […] 3-(N-morpholino)propanesulfonic acid (MOPS, Carl Roth, Karlsruhe, Germany) for C. auris, or 0.05 McFarland standard in RPMI 1640 medium in the case of C. albicans. Subsequently, 150 μL of the fungal dispersion were added into each well of a 96-well microtiter plate (Falcon no. 351172, Thermo Fisher Scientific) and further incubated (37 °C, 150 rpm, 2 h [C. auris] or 90 min [C. albicans]). The supernatant was discarded and the plate was rinsed one time by using a PBS buffer. Afterwards, azaphilones (Rub A, C, W, Z, and Rut A and B) were serially diluted in 150 μL in fresh medium to concentrations of 250–2 μg/mL (Rub C for C. auris: 250–0.02 μg/mL). Methanol (2.5%) was used as a solvent control and both, nystatin (NYS; Thermo Fisher Scientific) and farnesol (FA; Sigma Aldrich, St. Louis, MO, USA) as positive controls (250–2 μg/mL) for C. auris and C. albicans, respectively. Plates were further incubated (37 °C, 150 rpm, 24 h). The supernatant was discarded and biofilms were washed with PBS, stained by adding 150 μL of the crystal violet (CV; Sigma Aldrich) solution (0.1%), and incubated (room temperature, 25 min). Afterwards, the plates were washed twice with PBS buffer. A total of 150 μL ethanol (95%) were applied to dissolve the biofilm-bound CV. The absorbance was measured by a plate reader (Synergy 2, BioTek, Santa Clara, CA, USA) at 570 nm for C. auris or 610 nm for C. albicans. Error bars indicate SD with duplicates in two biological repeats.

C. auris [DSM 21092] = assay: MIC assay, C. auris; type: cell-based, Candida auris; conditions: tested 250–2 µg/mL
Description: as §1, §2, §3, §4, §5, §6, §7, §8, §9

[6] = design: method as in PMID 15921417; conditions: OA alone; cited from earlier work

Structure (SMILES)	MIC (C. albicans [DSM 1665])	MIC (C. albicans [DSM 11225])	MIC [1]	concentration above which significant effects on C. albicans biofilm formation start [2]	IC50 [3] [µM]	IC50 [4] [µM]	IC50 values between [5] [mg/L]	effect on formation of C. auris biofilms (C. auris biofilm)	inhibition at 2 µg/mL (C. auris biofilm) [%]	inhibition at 3.9 µg/mL (C. auris biofilm) [%]	inhibition at 7.8 µg/mL (C. auris biofilm) [%]	inhibition at 15.6 µg/mL (C. auris biofilm) [%]	inhibition at 31.3 µg/mL (C. auris biofilm) [%]	inhibition at 62.5 µg/mL (C. auris biofilm) [%]	inhibition at 125 µg/mL (C. auris biofilm) [%]	inhibition at 250 µg/mL (C. auris biofilm) [%]	MIC (C. auris [DSM 21092])	cytotoxicity [6]
CC(=O)OC/C=C/C1=CC2=C(CO1)C(=O)[C@@](C)(O)[C@@H](OC(=O)c1c(C)cc(O)cc1O)C2 [Rub A, rubiginosin A]	no antimicrobial activity	no antimicrobial activity	no antimicrobial activity	above 31.3 µg/mL	5.2	3.2	2.6 to 4.5	did not affect the formation	< 20	< 20	< 20	< 20	< 20	< 20	< 20	< 20	no antimicrobial activity	
Cc1cc(O)cc(O)c1C(=O)O [OA, orsellinic acid]																		no cytotoxicity
CC(=O)OC/C=C/C1=CC2=C(CO1)C(=O)[C@@](C)(OC(=O)c1c(C)cc(O)cc1O)[C@@H](O)C2 [Rub Z, rubiginosin Z]	no antimicrobial activity	no antimicrobial activity	no antimicrobial activity		5.2	4.7	2.6 to 4.5	did not affect the formation	< 20	< 20	< 20	< 20	< 20	< 20	< 20	< 20	no antimicrobial activity	
